Assay results taken from the NIST ThermoML archive (doi:10.1016/j.jct.2019.02.011).
± gives the expanded uncertainty stated by the source.

Test: xn = mol fraction of the nth substance listed
Details: 288.15 K, Liquid, Vibrating tube method

COC(=O)OC [dimethyl carbonate] + CCCO
mass density [kg/m3]
Details | 100 kPa | 5000 kPa | 10000 kPa | 15000 kPa | 20000 kPa | 25000 kPa
x1 = 0.0273 | 815.28 ± 1.4 | 819.04 ± 1.4 | 822.48 ± 1.4 | 825.78 ± 1.4 | 829.15 ± 1.4 | 832.17 ± 1.4
x1 = 0.0506 | 821.93 ± 1.4 | 825.69 ± 1.4 | 829.18 ± 1.4 | 832.53 ± 1.4 | 835.9 ± 1.4 | 838.98 ± 1.4
x1 = 0.0755 | 829.07 ± 1.4 | 832.88 ± 1.4 | 836.37 ± 1.4 | 839.78 ± 1.4 | 843.2 ± 1.4 | 846.28 ± 1.4
x1 = 0.1007 | 836.26 ± 1.4 | 840.08 ± 1.4 | 843.62 ± 1.4 | 847.03 ± 1.4 | 850.45 ± 1.4 | 853.58 ± 1.4
x1 = 0.1495 | 850.12 ± 1.4 | 853.99 ± 1.4 | 857.54 ± 1.4 | 861.01 ± 1.4 | 864.47 ± 1.4 | 867.61 ± 1.4
x1 = 0.2003 | 864.44 ± 1.4 | 868.36 ± 1.4 | 871.96 ± 1.4 | 875.5 ± 1.4 | 879 ± 1.4 | 882.15 ± 1.4
x1 = 0.2529 | 879.11 ± 1.4 | 883.04 ± 1.4 | 886.7 ± 1.4 | 890.29 ± 1.4 | 893.84 ± 1.4 | 897.05 ± 1.4
x1 = 0.2993 | 891.99 ± 1.4 | 895.97 ± 1.4 | 899.68 ± 1.4 | 903.29 ± 1.4 | 906.83 ± 1.4 | 910.1 ± 1.4
x1 = 0.3497 | 905.81 ± 1.4 | 909.85 ± 1.4 | 913.56 ± 1.4 | 917.23 ± 1.4 | 920.81 ± 1.4 | 924.09 ± 1.4
x1 = 0.401 | 919.74 ± 1.4 | 923.79 ± 1.4 | 927.61 ± 1.4 | 931.33 ± 1.4 | 934.96 ± 1.4 | 938.25 ± 1.5
x1 = 0.4509 | 933.25 ± 1.4 | 937.3 ± 1.4 | 941.17 ± 1.5 | 944.96 ± 1.5 | 948.59 ± 1.5 | 951.93 ± 1.5
x1 = 0.5002 | 946.47 ± 1.5 | 950.58 ± 1.5 | 954.46 ± 1.5 | 958.3 ± 1.5 | 961.98 ± 1.5 | 965.33 ± 1.5
x1 = 0.5498 | 959.76 ± 1.5 | 963.88 ± 1.5 | 967.81 ± 1.5 | 971.66 ± 1.5 | 975.38 ± 1.5 | 978.79 ± 1.5
x1 = 0.5996 | 973.01 ± 1.5 | 977.19 ± 1.5 | 981.12 ± 1.5 | 984.99 ± 1.5 | 988.75 ± 1.5 | 992.17 ± 1.5
x1 = 0.6499 | 986.28 ± 1.5 | 990.51 ± 1.5 | 994.5 ± 1.5 | 998.42 ± 1.5 | 1002.18 ± 1.5 | 1005.66 ± 1.5
x1 = 0.7006 | 999.56 ± 1.5 | 1003.79 ± 1.5 | 1007.79 ± 1.5 | 1011.77 ± 1.5 | 1015.53 ± 1.5 | –
x1 = 0.7471 | 1011.61 ± 1.5 | 1015.85 ± 1.5 | 1019.9 ± 1.5 | 1023.94 ± 1.5 | 1027.7 ± 1.5 | –
x1 = 0.7989 | 1025.02 ± 1.5 | 1029.31 ± 1.5 | 1033.41 ± 1.5 | 1037.52 ± 1.5 | 1041.32 ± 1.5 | –
x1 = 0.8491 | 1038.04 ± 1.5 | 1042.34 ± 1.5 | 1046.44 ± 1.5 | 1050.56 ± 1.5 | 1054.41 ± 1.6 | –
x1 = 0.8993 | 1051.07 ± 1.5 | 1055.38 ± 1.5 | 1059.54 ± 1.6 | 1063.72 ± 1.6 | 1067.56 ± 1.6 | –
x1 = 0.9249 | 1057.64 ± 1.5 | 1061.95 ± 1.6 | 1066.12 ± 1.6 | 1070.3 ± 1.6 | 1074.14 ± 1.6 | –
x1 = 0.9489 | 1063.77 ± 1.6 | 1068.08 ± 1.6 | 1072.25 ± 1.6 | 1076.44 ± 1.6 | 1080.27 ± 1.6 | –
x1 = 0.9743 | 1070.25 ± 1.6 | 1074.61 ± 1.6 | 1078.78 ± 1.6 | 1082.98 ± 1.6 | 1086.81 ± 1.6 | –
x1 = 1 | 1076.83 ± 0.57 | 1081.15 ± 0.57 | 1085.32 ± 0.58 | 1089.52 ± 0.6 | 1093.35 ± 0.61 | –
